According to patent publication US8980906B2, “Pyridonemorphinan analogs and biological activity on opioid receptors” (Purdue Pharma L.P., priority 2012, dated 2015):

Columns and labels:
Assay type in all cases: biochemical
[1] = biological target: T1, μ-opioid receptor (Homo sapiens (Human), UniProt P35372); assay: μ-opioid receptor [35S]GTPγS functional assay, HEK-293 or CHO cells
Description: (§1) μ-Opioid Receptor Functional Assay Procedures: [^35S]GTPγS functional assays were conducted using freshly thawed μ-receptor membranes prepared in-house from a cell line expressing recombinant μ opioid receptor in a HEK-293, CHO or U-2 OS cell background, or purchased from a commercial source (Perkin Elmer, Shelton, Conn.; or DiscovRx, Fremont, Calif.). Assay reactions were prepared by sequentially adding the following reagents to binding buffer (100 mM NaCl, 10 mM MgCl2, 20 mM HEPES, pH 7.4) on ice (final concentrations indicated): membrane protein (0.026 mg/mL), saponin ([…]), GDP ([…]) and [^35S]GTPγS (0.20 nM; Perkin Elmer, Shelton, Conn.). The prepared membrane solution (190 μl/well) was transferred to 96-shallow well polypropylene plates containing 10 μl of 20× concentrated stock solutions of the agonist [D-Ala^2, N-methyl-Phe^4 Gly-ol^5]-enkephalin (DAMGO) prepared in dimethyl sulfoxide (DMSO). Plates were incubated for 30 min at about 25° C. with shaking. Reactions were terminated by rapid filtration onto 96-well Unifilter GF/B filter plates (Perkin Elmer, Shelton, Conn.) using a 96-well tissue harvester (Perkin Elmer, Shelton, Conn.) followed by three filtration washes with 200 μl of ice-cold wash buffer (10 mM NaH2PO4, 10 mM Na2HPO4, pH 7.4). Filter plates were subsequently dried at 50° C. for 2-3 hours. BetaScint scintillation cocktail (Perkin Elmer, Shelton, Conn.) was added (50 μl/well) and plates were counted using a Packard Top-Count for 1 min/well. Data were analyzed using the sigmoidal dose-response curve fitting functions in GraphPad PRISM v. 3.0, or an in-house function for non-linear, sigmoidal dose-response curve-fitting.
(§2) μ-Opioid Receptor Functional Data: μ GTP EC50 is the concentration of a compound providing 50% of the maximal response for the compound at a μ-opioid receptor.
(§3) μ GTP Emax (%) is the maximal effect elicited by a compound relative to the effect elicited by DAMGO, a standard μ agonist. Generally, the μ GTP Emax (%) value measures the efficacy of a compound to treat or prevent pain or other Conditions.
In TABLE 2, activity response of certain Compounds of the Invention to the μ-, δ- and κ-opioid receptors was determined as described above for functional assays using HEK-293 or CHO cells.

[2] = biological target: T1, μ-opioid receptor; assay: μ-opioid receptor [35S]GTPγS functional assay, U-2 OS cells; conditions: for Emax: relative to DAMGO, U-2 OS cells
Description: as §1, §2, §3
(§4) The following TABLE 3 provides results on the activity response of certain Compounds of the Invention at the μ- and κ-opioid receptors determined as described above using U-2 OS cells.

[3] = biological target: κ-opioid receptor (Homo sapiens (Human), UniProt P41145); assay: κ-opioid receptor [35S]GTPγS functional assay, U-2 OS cells; conditions: for Emax: relative to U69,593, U-2 OS cells
Description: κ-Opioid Receptor Functional Assay Procedures: Functional [^35S]GTPγS binding assays were conducted as follows. κ opioid receptor membrane solution was prepared by sequentially adding final concentrations of 0.026 μg/μl κ membrane protein (in-house), 10 μg/mL saponin, 3 μM GDP and 0.20 nM [^35S]GTPγS to binding buffer (100 mM NaCl, 10 mM MgCl2, 20 mM HEPES, pH 7.4) on ice. The prepared membrane solution (190 μl/well) was transferred to 96-shallow well polypropylene plates containing 10 μl of 20× concentrated stock solutions of agonist prepared in DMSO. Plates were incubated for 30 min at a temperature of about 25° C. with shaking. Reactions were terminated by rapid filtration onto 96-well Unifilter GF/B filter plates (Perkin Elmer, Shelton, Conn.) using a 96-well tissue harvester (Packard) and followed by three filtration washes with 200 μl ice-cold binding buffer (10 mM NaH2PO4, 10 mM Na2HPO4, pH 7.4). Filter plates were subsequently dried at 50° C. for 2-3 hours. Fifty μl/well scintillation cocktail (Perkin Elmer, Shelton, Conn.) was added and plates were counted in a Packard Top-Count for 1 min/well.
κ-Opioid Receptor Functional Data: κ GTP EC50 is the concentration of a compound providing 50% of the maximal response for the compound at a κ receptor.
κ GTP Emax (%) is the maximal effect elicited by a compound relative to the effect elicited by U69,593.
as §4

[4] = relative to DAMGO, HEK-293 or CHO cells

| SMILES | EC50 [1] [µM] | Emax [1, 4] [%] | EC50 [2] [nM] | Emax [2] [%] | EC50 [3] [nM] | Emax [3] [%] | EC50 ([1]; GTPγS, HEK-293 or CHO cells, bound given in μM, read-out: μ EC50) [µM] | μ Emax (%) [1, 4] [%] |
| --- | --- | --- | --- | --- | --- | --- | --- | --- |
| O=C(N[C@H]1c2ccccc2C[C@H]1O)c1cc2c([nH]c1=O)C[C@]13CCN(CC4CC4)[C@H](Cc4ccc(O)cc41)[C@@H]3C2 [Compound 62, (6R,6aR,12aS)-15-(cyclopropylmethyl)-2-hydroxy-N-((1S,2R)-2-hydroxy-2,3-dihydro-1H-inden-1-yl)-10-oxo-6,6a,7,10,11,12-hexahydro-5H-6,12a-(epiminoethano)naphtho[2,1-g]quinoline-9-carboxamide] | > 20 | -1 |  |  |  |  |  |  |
| CC(C)C[C@H](NC(=O)c1cc2c([nH]c1=O)C[C@]13CCN(C)[C@H](Cc4ccc(O)cc41)[C@]3(O)C2)C(N)=O [Compound 52, (6R,6aS,12R)—N—((S)-1-amino-4-methyl-1-oxopentan-2-yl)-2,6a-dihydroxy-15-methyl-10-oxo-6,6a,7,10,11,12-hexahydro-5H-6,12a-(epiminoethano)naphtho[2.1-g]quinoline-9-carboxamide] |  |  | 244 ± 10.8 | 97.7 ± 1.45 | 3790 ± 1570 | 28.8 ± 2.17 |  |  |
| O=C(c1cc2c([nH]c1=O)C[C@]13CCN(CC4CC4)[C@H](Cc4ccc(O)cc41)[C@@H]3C2)N1[C@@H]2CC[C@H]1C[C@@H](O)C2 [Compound 65, (6R,6aR,12aS)-15-(cyclopropylmethyl)-2-hydroxy-9-((1R,R,5S)-3-hydroxy-8-azabicyclo[3.2.1]octane-8-carbonyl)-6,6a,7,12-tetrahydro-5H-6,12a-(epiminoethano)naphtho[2,1-g]quinolin-10(11H)-one] |  |  |  |  |  |  | > 20 | 4.00 |
| C[C@H](NC(=O)c1cc2c([nH]c1=O)C[C@]13CCN(C)[C@H](Cc4ccc(O)cc41)[C@]3(O)C2)C(N)=O [Compound 50, (6R,6aS,12R)—N—((S)-1-amino-1-oxopropan-2-yl)-26a-dihydroxy-15-methyl-10-oxo-6,6a,7,10,11,12-hexahydro-5H-6,12a-(epiminoethano)naphtho[2.1-g]quinoline-9-carboxamide] |  |  | 204 ± 11.3 | 95 ± 1.15 | 1070 ± 157 | 54 ± 2.74 |  |  |
| CN1CC[C@]23Cc4[nH]c(=O)c(C(=O)N5CCOCC5)cc4C[C@@]2(O)[C@H]1Cc1ccc(O)cc13 [Compound 47, (6R,6aS,12aR)-2,6a-dihydroxy-15-methyl-9-(morpholine-4-carbonyl)-6a,7,11,12-tetrahydro-5H-6,12a-(epiminoethano)naphtho[2,1-g]quinolin-10(6H)-one] |  |  | 156 ± 12.7 | 82 ± 1.73 | 511 ± 139 | 50 ± 2.74 |  |  |
| O=C(c1ccccc1)c1cc2c([nH]c1=O)C[C@]13CCN(CC4CC4)[C@H](Cc4ccc(O)cc41)[C@]3(O)C2 [Compound 59, (6R,6aS,12R)-9-benzoyl-15-(cyclopropylmethyl)-2,6a-dihydroxy-6,6a,7,12-tetrahydro-5H-6,12a-(epiminoethano)naphtho[2.1-g]quinolin-10(11H)-one] |  |  | > 20000 | 2.5 | 17900 ± 7550 | 16.8 ± 1.44 |  |  |
| CC(C)CCNC(=O)c1cc2c([nH]c1=O)C[C@]13CCN(C)[C@H](Cc4ccc(O)cc41)[C@]3(O)C2 [Compound 49, (6R,6aS,12aR)-2,6a-dihydroxy-N-isopentyl-15-methyl-10-oxo-6,6a,7,10,11,12-hexahydro-5H-6,12a-(epiminoethano)naphtho[2,1-g]quinoline-9-carboxamide] |  |  | 445 ± 63.8 | 80 ± 3.61 | 204 ± 68.1 | 63 ± 1.73 |  |  |
| CN1CC[C@]23Cc4[nH]c(=O)c(C(=O)O)cc4C[C@@]2(O)[C@H]1Cc1ccc(O)cc13 [Compound 41, (6R,6aS,12aR)-2,6a-dihydroxy-15-methyl-10-oxo-6,6a,7,10,11,12-hexahydro-5H-6,12a-(epiminoethano)naphtho[2,1-g]quinoline-9-carboxylic acid] |  |  | 111 ± 8.9 | 58.2 ± 2.32 | 568 ± 33.3 | 70 ± 4.58 |  |  |
| NC(=O)c1cc2c([nH]c1=O)C[C@]13CCN(CC(F)(F)F)[C@H](Cc4ccc(O)cc41)[C@]3(O)C2 [Compound 34, (6R,6aS,12aR)-2,6a-dihydroxy-10-oxo-15-(2,2,2-trifluoroethyl)-6,6a,7,10,11,12-hexahydro-5H-6,12a-(epiminoethano)naphtho[2,1-g]quinoline-9-carboxamide] |  |  | > 20000 | 8.5 | > 20000 | 0 |  |  |
| COc1ccc2c(c1)[C@]13CCN(C)[C@H](C2)[C@]1(O)Cc1cc(C(=O)O)c(=O)[nH]c1C3 [Compound 40, (6R,6aS,12aR)-6a-hydroxy-2-methoxy-15-methyl-10-oxo-6,6a,7,10,11,12-hexahydro-5H-6,12a-(epiminoethano)naphtho[2,1-g]quinoline-9-carboxylic acid] |  |  | 13900 ± 1630 | 72 ± 4.16 | > 20000 | 96 ± 1.53 |  |  |
| CN1CC[C@]23Cc4[nH]c(=O)c(C(=O)NCC5CCCCC5)cc4C[C@@]2(O)[C@H]1Cc1ccc(O)cc13 [Compound 44, (6R,6aS,12aR)—N-(cyclohexylmethyl)-2,6a-dihydroxy-15-methyl-10-oxo-6,6a,7,10,11,12-hexahydro-5H-6,12a-(epiminoethano)naphtho[2,1-g]quinoline-9-carboxamide] |  |  | 439 ± 27.4 | 88.3 ± 0.88 | 92.5 ± 24.2 | 67 ± 1 |  |  |
| O=C(c1cc2c([nH]c1=O)C[C@]13CCN(CC4CC4)[C@H](Cc4ccc(O)cc41)[C@@H]3C2)N1CCS(=O)(=O)CC1 [Compound 60, (6R,6aR,12aS)-15-(cyclopropylmethyl)-9-(1,1-dioxidothiomorpholine-4-carbonyl)-2-hydroxy-6,6a,7,12-tetrahydro-5H-6,12a-(epiminoethano)naphtho[2,1-g]quinolin-10(11H)-one] | > 20 | -1 ± 1 |  |  |  |  |  |  |
| O=C(c1cc2c([nH]c1=O)C[C@]13CCN(CC4CC4)[C@H](Cc4ccc(O)cc41)[C@@H]3C2)N1Cc2ccccc2C1 [Compound 64, (6R,6aR,12aS)-15-(cyclopropylmethyl)-2-hydroxy-9-(isoindoline-2-carbonyl)-6,6a,7,12-tetrahydro-5H-6,12a-(epiminoethano)naphtho[2,1-g]quinolin-10(11H)-one] | > 20 | 3.5 |  |  |  |  |  |  |
| CN(C(=O)c1cc2c([nH]c1=O)C[C@]13CCN(CC4CC4)[C@H](Cc4ccc(O)cc41)[C@@H]3C2)C1CCCCC1 [Compound 63, (6R,6aR,12aS)—N-cyclohexyl-15-(cyclopropylmethyl)-2-hydroxy-N-methyl-10-oxo-6,6a,7,10,11,12-hexahydro-5H-6,12a-(epiminoethano)naphtho[2,1-g]quinoline-9-carboxamide] | > 20 | -1 |  |  |  |  |  |  |
| O=C(N[C@@H]1c2ccccc2C[C@@H]1O)c1cc2c([nH]c1=O)C[C@]13CCN(CC4CC4)[C@H](Cc4ccc(O)cc41)[C@@H]3C2 [Compound 61, (6R,6aR,12aS)-15-(cyclopropylmethyl)-2-hydroxy-N-((1R,2S)-2-hydroxy-2,3-dihydro-1H-inden-1-yl)-10-oxo-6,6a,7,10,11,12-hexahydro-5H-6,12a-(epiminoethano)naphtho[2,1-g]quinoline-9-carboxamide] | > 20 | -1 |  |  |  |  |  |  |
